According to the RepoRT retention time repository (doi:10.1016/j.foodchem.2021.129757):
Where a name gives a salt, the structure may show the parent alone. One block for each compound: values may come before it.

Experiments:
Details in all cases: stereoisomer not certain
[1] = RP, Phenomenex Synergi Hydro-RP, 250 × 2 mm, 4 µm, 25 °C, 0.2 mL/min, estimated dead time 2.5 min; A: water + 0.1% formic acid, pH 3; B: acetonitrile + 0.1% formic acid, pH 3; gradient (min/%B) 0/0.5 7/0.5 12/12.5 25/16.3 47/35 48/65 50/65 50.1/0.5
[2] = RP, Agilent ZORBAX Eclipse XDB-C18, 100 × 2.1 mm, 1.8 µm, 50 °C, 0.4 mL/min, estimated dead time 0.55 min; A: water + 0.1% formic acid, pH 3; B: methanol + 0.1% formic acid, pH 3; gradient (min/%B) 0/2 10/100 14.5/100 14.51/2 16.5/2
[3] = RP, Waters ACQUITY UPLC HSS T3, 100 × 2.1 mm, 50 °C; A: water + 0.1% formic acid, pH 3; B: 30% methanol + 70% acetonitrile + 0.1% formic acid, pH 3; gradient (min/%B) 0/5 1/8 2/15 3/40 4/70 4.5/100 5/100 6.4/100 6.6/5 6.8/5 7/5
[4] = RP, Waters ACQUITY UPLC BEH C18, 100 × 2.1 mm, 1.7 µm, 65 °C, 0.4 mL/min, estimated dead time 0.55 min; A: water + 0.1% formic acid, pH 3; B: 80% acetonitrile + 20% acetone + 0.1% formic acid, pH 3; gradient (min/%B) 0/0 5/100 5.5/0 6/0
[5] = RP, Waters ACQUITY UPLC HSS T3, 100 × 2.1 mm, 1.8 µm, 30 °C, 0.4 mL/min, estimated dead time 0.55 min; A: water + 0.1% formic acid, pH 3; B: acetonitrile + 0.1% formic acid, pH 3; gradient (min/%B) 0/0 2/0 15/100 22/100 22.1/0 26/0
[6] = RP, Agilent ZORBAX RRHD Eclipse Plus C18, 50 × 2.1 mm, 1.8 µm, 30 °C, 0.4 mL/min, estimated dead time 0.28 min; A: water + 0.1% formic acid, pH 3; B: acetonitrile + 0.1% formic acid, pH 3; gradient (min/%B) 0/1 5/10 8/25 9.1/99 10/99 12/99
[7] = RP, Agilent ZORBAX RRHD Eclipse Plus C18, 50 × 2.1 mm, 1.8 µm, 30 °C, 0.4 mL/min, estimated dead time 0.28 min; A: water + 0.1% formic acid, pH 3; B: acetonitrile + 0.1% formic acid, pH 3; gradient (min/%B) 0/1 5/10 8/25 9.1/99 10/99 12/1

SMILES: O=C(O)CNCc1ccccc1O [salicylglycine]
- LC retention time [1]: 27.4 min

SMILES: Cc1ncc(CO)c(C=O)c1O [Pyridoxal]
- LC retention time [2]: 1.35 min
- LC retention time [3]: 2.61 min
- LC retention time [4]: 0.821 min

SMILES: Cc1ccccc1C(=O)NCC(=O)O [2-Methylhippuric acid]
- LC retention time [3]: 3.4 min
- LC retention time [4]: 1.96 min

SMILES: CC(=O)CCC(=O)O [Levulinic acid]
- LC retention time [3]: 1.46 min
- LC retention time [4]: 1.4 min

SMILES: Cc1ccc(OS(=O)(=O)O)cc1 [p-Cresol sulfate]
- LC retention time [3]: 3.38 min
- LC retention time [4]: 1.99 min

SMILES: CC(C)C1NC(=O)C2CCCN2C1=O (configuration not stated) [Cyclo(Pro-Val)]
- LC retention time [5]: 8.07 min
- LC retention time [3]: 3.1 min
- LC retention time [4]: 1.88 min

SMILES: O=C(O)C(O)Cc1c[nH]c2ccccc12 (configuration not stated) [3-Indolelactic acid]
- LC retention time [3]: 3.53 min
- LC retention time [4]: 2.14 min

SMILES: O=C(O)c1cccnc1 [Niacin]
- LC retention time [1]: 5.51 min

SMILES: O=C(O)Cc1c[nH]c2ccccc12 [3-Indoleacetic acid]
- LC retention time [2]: 5 min
- LC retention time [3]: 3.62 min
- LC retention time [4]: 2.35 min

SMILES: c1coc(CNc2ncnc3nc[nH]c23)c1 [Kinetin]
- LC retention time [3]: 3.03 min
- LC retention time [4]: 1.7 min

SMILES: Cn1c(=O)c2[nH]c(=O)[nH]c2n(C)c1=O [1,3-Dimethyluric acid]
- LC retention time [5]: 7.03 min
- LC retention time [3]: 2.01 min
- LC retention time [4]: 1.45 min

SMILES: COc1ccc(CC(=O)O)cc1OC [homoveratric acid]
- LC retention time [1]: 32.5 min

SMILES: Cc1cccc(OS(=O)(=O)O)c1 [m-Cresol sulfate]
- LC retention time [3]: 3.44 min
- LC retention time [4]: 2 min

SMILES: O=C(O)CCCCCCCC(=O)O [Azelaic acid]
- LC retention time [2]: 5.74 min
- LC retention time [3]: 3.63 min
- LC retention time [4]: 2.33 min

SMILES: COc1ccccc1C(=O)O [o-Anisic acid]
- LC retention time [1]: 31.4 min

SMILES: Cn1c(=O)[nH]c2ncn(C)c2c1=O [Paraxanthine]
- LC retention time [5]: 7.53 min
- LC retention time [2]: 2.93 min
- LC retention time [3]: 2.56 min
- LC retention time [4]: 1.48 min

SMILES: O=C(O)C(O)Cc1ccc(O)cc1 (configuration not stated) [p-Hydroxyphenyllactic acid]
- LC retention time [2]: 2.73 min
- LC retention time [3]: 2.66 min

SMILES: O=C(O)c1ccc[nH]1 [Pyrrole-2-carboxylic acid]
- LC retention time [3]: 2.61 min
- LC retention time [4]: 1.68 min

SMILES: COc1cccc(C=CC(=O)O)c1 [3-methoxycinnamic acid]
- LC retention time [1]: 49.1 min

SMILES: O=C(O)Cc1ccccc1O [2-Hydroxyphenylacetic acid]
- LC retention time [5]: 9.13 min
- LC retention time [2]: 3.82 min
- LC retention time [3]: 3.4 min

SMILES: CC(O)C1NC(=O)C2CCCN2C1=O (configuration not stated) [Cyclo(Pro-Thr)]
- LC retention time [3]: 1.54 min
- LC retention time [4]: 1.37 min

SMILES: Cn1c(=O)[nH]c2[nH]c(=O)[nH]c2c1=O [1-Methyluric acid]
- LC retention time [3]: 1.27 min
- LC retention time [4]: 1.29 min

SMILES: O=C(O)C(O)Cc1ccccc1 (configuration not stated) [3-Phenyllactic acid]
- LC retention time [1]: 27.2 min

SMILES: NCCc1ccc(OS(=O)(=O)O)c(O)c1 [Dopamine 4-O-sulfate]
- LC retention time [3]: 0.606 min
- LC retention time [4]: 1.3 min

SMILES: O=S(=O)(O)Oc1c[nH]c2ccccc12 [3-Indoxyl sulfate]
- LC retention time [3]: 2.67 min
- LC retention time [4]: 1.68 min

SMILES: Cn1c(=O)[nH]c(=O)c2[nH]cnc21 [3-Methylxanthine]
- LC retention time [3]: 1.45 min
- LC retention time [4]: 1.3 min

SMILES: O=C(O)C1CCCCN1 (single isomer, unassigned; (+)) [(+)-Pipecolinic acid]
- LC retention time [3]: 0.617 min

SMILES: O=c1[nH]c(=O)c2[nH]c(=O)[nH]c2[nH]1 [Uric acid]
- LC retention time [1]: 7.67 min

SMILES: CC(C)(CO)C(O)C(=O)NCCC(=O)O (racemic) [DL-Pantothenic acid]
- LC retention time [2]: 2.42 min
- LC retention time [3]: 2 min

SMILES: NC(=O)NCCC[C@H](N)C(=O)O [L-Citrulline]
- LC retention time [3]: 0.483 min

SMILES: O=C(O)C1CC(O)CN1 (configuration not stated) [Hydroxyproline]
- LC retention time [3]: 0.466 min

SMILES: COc1ccc(C=CC(=O)O)cc1 [4-methoxycinnamic acid]
- LC retention time [1]: 48 min

SMILES: O=Cc1ccccc1O [2-Hydroxybenzaldehyde]
- LC retention time [3]: 3.72 min

SMILES: COc1ccccc1C=CC(=O)O [2-Methoxycinnamic acid]
- LC retention time [1]: 50 min

SMILES: C=CCS(=O)CC(N)C(=O)O (configuration not stated) [Alliin]
- LC retention time [3]: 0.638 min

SMILES: COc1cccc(C(=O)O)c1 [m-Anisic acid]
- LC retention time [1]: 40.2 min

SMILES: O=C(O)CNC(=O)C=Cc1c[nH]c2ccccc12 [Indole-3-acryloylglycine]
- LC retention time [3]: 3.56 min
- LC retention time [4]: 2.13 min

SMILES: Cc1ccccc1OS(=O)(=O)O [o-Cresol sulfate]
- LC retention time [3]: 3.38 min
- LC retention time [4]: 1.93 min

The next lines start with the values.

- LC retention time [1]: 37 min
SMILES: O=C(O)CC(=O)OCC1OC(Oc2c(-c3ccc(O)c(O)c3)oc3cc(O)cc(O)c3c2=O)C(O)C(O)C1O (configuration not stated) [Quercetin 3-O-malonylglucoside]

- LC retention time [1]: 4.44 min
SMILES: CS(=O)CCCC(=NOS(=O)(=O)O)SC1OC(CO)C(O)C(O)C1O (configuration not stated) [Glucoiberin]

- LC retention time [1]: 19 min
- LC retention time [2]: 3.46 min
SMILES: Nc1nc2ncc(CNc3ccc(C(=O)NC(CCC(=O)O)C(=O)O)cc3)nc2c(=O)[nH]1 (configuration not stated) [Folic acid]

- LC retention time [1]: 5.52 min
SMILES: C=CCC(=NOS(=O)(=O)O)SC1OC(CO)C(O)C(O)C1O (configuration not stated) [Sinigrin]

- LC retention time [5]: 9.38 min
- LC retention time [1]: 28.5 min
SMILES: COc1cc(CCC(=O)O)ccc1O [Hydroferulic acid]

- LC retention time [3]: 2.94 min
- LC retention time [4]: 1.73 min
SMILES: O=C(O)C1OC(Oc2c[nH]c3ccccc23)C(O)C(O)C1O (stereo not drawn) [Indoxyl beta-d-glucuronide]

- LC retention time [1]: 6.23 min
SMILES: CS(=O)CCCCC(=NOS(=O)(=O)O)SC1OC(CO)C(O)C(O)C1O (configuration not stated) [Glucoraphanin]

- LC retention time [3]: 0.909 min
SMILES: O=C(O)C1OC(Oc2ccc(O)cc2)C(O)C(O)C1O (configuration not stated) [Hydroquinone glucuronide]

- LC retention time [5]: 1.3 min
- LC retention time [3]: 0.706 min
SMILES: NCCc1ccc(O)c(O)c1 [Dopamine]

- LC retention time [1]: 31.8 min
SMILES: CC1OC(OCC2OC(Oc3c(-c4ccc(O)cc4)oc4cc(OC5OC(C)C(O)C(O)C5O)cc(O)c4c3=O)C(O)C(O)C2O)C(O)C(O)C1O (configuration not stated) [Robinin]

- LC retention time [3]: 3.36 min
- LC retention time [4]: 1.89 min
SMILES: O=C(OC1OC(C(=O)O)C(O)C(O)C1O)c1c[nH]c2ccccc12 (configuration not stated) [3-Indole carboxylic acid glucuronide]

- LC retention time [1]: 37.2 min
SMILES: O=c1c(OC2OC(CO)C(O)C(O)C2O)c(-c2ccc(O)cc2)oc2cc(O)cc(O)c12 [Kaempferol 3-O-D-galactoside]

- LC retention time [3]: 3.6 min
SMILES: COc1ccc(-c2cc(=O)c3c(O)cc(OC4OC(C(=O)O)C(O)C(O)C4O)cc3o2)cc1O (configuration not stated) [Diosmetin 7-glucuronide]

- LC retention time [1]: 12.7 min
SMILES: C=CCCC(=NOS(=O)(=O)O)SC1OC(CO)C(O)C(O)C1O (configuration not stated) [Gluconapin]

- LC retention time [1]: 20.6 min
SMILES: CC1OC(OCC2OC(Oc3c(-c4ccc(O)c(O)c4)oc4cc(OC5OC(CO)C(O)C(O)C5O)cc(O)c4c3=O)C(O)C(O)C2O)C(O)C(O)C1O (configuration not stated) [Quercetin 3-O-rutinoside-7-O-glucoside]

- LC retention time [3]: 2.66 min
SMILES: O=C(O)CCc1cc(O)cc(O)c1 [3-(3,5-Dihydroxyphenyl)propanoic acid]

- LC retention time [3]: 2.86 min
- LC retention time [4]: 1.61 min
SMILES: O=C(O)Cc1c[nH]c2ccc(O)cc12 [5-Hydroxyindole-3-acetic acid]

- LC retention time [1]: 19.3 min
SMILES: O=S(=O)(O)ON=C(CCc1ccccc1)SC1OC(CO)C(O)C(O)C1O (configuration not stated) [Gluconasturtiin]

- LC retention time [1]: 47 min
SMILES: O=C(C=Cc1ccc(O)cc1)OCC1OC(Oc2c(-c3ccc(O)cc3)oc3cc(O)cc(O)c3c2=O)C(O)C(O)C1O (configuration not stated) [Tiliroside]

- LC retention time [3]: 3.44 min
- LC retention time [4]: 2.01 min
SMILES: Cc1ccc(OC2OC(C(=O)O)C(O)C(O)C2O)cc1 (configuration not stated) [p-Cresol glucuronide]

- LC retention time [3]: 3.46 min
SMILES: O=C(Cc1c[nH]c2ccccc12)OC1OC(C(=O)O)C(O)C(O)C1O (configuration not stated) [Indole-3-acetic acid glucuronide]

- LC retention time [1]: 38.8 min
SMILES: CC(=O)OCC1OC(Oc2c(-c3ccc(O)c(O)c3)oc3cc(O)cc(O)c3c2=O)C(O)C(O)C1O (configuration not stated) [Quercetin-3-O-(6-acetylglucoside)]

- LC retention time [6]: 3.09 min
- LC retention time [7]: 4.38 min
- LC retention time [3]: 2.65 min
SMILES: O=C(O)C1OC(Oc2ccccc2O)C(O)C(O)C1O (configuration not stated) [Catechol-O-1-glucuronide]

- LC retention time [3]: 2.92 min
SMILES: OCC1OC(Oc2c[nH]c3ccccc23)C(O)C(O)C1O (stereo not drawn) [Indoxyl beta-d-glucoside]
